Read-outs that look alike come from different tables or passages of the source.
Key:
[1] = system: MCF-7 breast cancer cell line; assay: SRB anti-proliferative assay, MCF-7; type: cell-based, human; conditions: read-out: IC50 MCF-7
Description: (§1) The experimental details for the performed biological assays; Sulforhodamine B (SRB) cytotoxicity, CDK2 kinase, Annexin V-FITC apoptosis, and cell cycle assays[86–89] were mentioned in the Supporting Information.
(§2) 1. Anti-proliferative activity assay
(§3) The examined human pancreatic cancer (Panc-1), breast cancer (MCF-7), and lung carcinoma (A549) cell lines have been obtained from American Type Culture Collection (ATCC). The cells were maintained in Dulbecco's modified Eagle's medium (DMEM) supplemented with 10% heat inactivated fetal calf serum (GIBCO), penicillin (100 U/ml) and streptomycin (100 µg/ml) at 37 °C in humidified atmosphere containing 5% CO2. […]
(§4) a 25 cm2 flask in 5 ml of culture medium. The anti-proliferative activity of the tested 3-(piperazinylmethyl)benzofurans (9, 11, 13, 15 and 17) was measured in vitro using the Sulfo-Rhodamine-B stain (SRB) assay. Briefly, cells were plated out in 96-well microtiter plate (0.5X10^4 cells/well) and incubated for 24 h before treatment with the tested hybrids to allow cells to attach to the bottom of the well of the plate. Tested benzofurans were dissolved in DMSO at 1 mg/ml immediately before use and diluted to the appropriate volume just before addition to the cell culture. Different concentrations of tested benzofurans, and Staurosporine were added to the cells (three wells were prepared for each individual dose). Cells were incubated with the hybrids for 48 […]
(§5) After 48 h cells were fixed, washed, and stained for 30 min with 0.4% (w/v) SRB dissolved in 1% acetic acid. Unbound dye was removed by four washes with 1% acetic acid, and attached stain was recovered with Tris-EDTA buffer. Color intensity was measured in an ELISA reader. The relation between percent of surviving fraction and log drug concentration is plotted to get the survival curve for each cell line. […]

[2] = biological target: T1, CDK2 (Homo sapiens, UniProt P24941); assay: CDK2 kinase inhibitory assay (Promega CDK2 Kinase Enzyme System); type: biochemical; conditions: mean ± SD of three separate experiments
T1 construct: purchased Promega V2971
Description: The experimental details for the performed biological assays; Sulforhodamine B (SRB) cytotoxicity, CDK2 kinase, Annexin V-FITC apoptosis, and cell cycle assays[86–89] were mentioned in the Supporting Information. […]
4. CDK Kinase Inhibitory Activity
CDK2 Kinase Enzyme System (catalog No. V2971) (Promega, Milan, Italy), according to the
manufacturer’s instructions. […]

[3] = system: A-549 lung carcinoma cell line; assay: SRB anti-proliferative assay, A-549; type: cell-based, human; conditions: read-out: IC50 A-549
Description: as §1, §2, §3, §4, §5

[4] = system: Panc-1 pancreatic cancer cell line; assay: SRB anti-proliferative assay, Panc-1; type: cell-based, human; conditions: read-out: IC50 Panc-1
Description: as §1, §2, §3, §4, §5

[5] = system: non-tumorigenic human lung fibroblast MRC-5 cell line; assay: Normal cell cytotoxicity, MRC-5; type: cell-based
Experimental: To test the safety of the newly synthesised compounds and their selectivity towards cancer cells, their cytotoxic activity was tested on non-tumorigenic human lung fibroblast MRC-5 cell line.

[6] = system: Panc-1 cells; assay: Annexin V-FITC/PI apoptosis assay; type: cell-based, human; conditions: Panc-1, IC50 concentration; for total apoptotic cells percentage: control 2.41%; for early apoptotic phase percentage: lower right quadrant, control 0.59%; for late apoptotic phase percentage: upper right quadrant, control 0.32%
Experimental: Anx V flowcytometry assay is featured as a helpful tool to determine whether cells death is due to the physiological apoptosis or to the non-specific necrosis.
3. Annexin V-FITC Apoptosis Assay
Phosphatidylserine externalization was assayed using Annexin V-FITC/PI apoptosis detection kit (BD Biosciences, USA) according to the manufacturer’s instructions. Pancreatic cancer Panc-1 […]
concentration. Briefly, cells were then harvested via trypsinization, and rinsed twice in PBS followed by binding buffer. Moreover, cells were re-suspended in 100 μL of binding buffer with the addition of 1 μL of FITC-Annexin V followed by an incubation period of 30 min at 4 °C. Cells were then rinsed in binding buffer and resuspended in 150 μL of binding buffer with the addition

[7] = system: Panc-1 cells; assay: Cell cycle analysis (PI flow cytometry); type: cell-based, human; conditions: Panc-1, IC50 dose, 24 h; for proportion of cells in sub-G1 phase: control 2.36%; for proportion of cells in G2/M phase: control 12.17%; for cells population in S phase: control 41.90%; for cells population in G0/G1 phase: control 43.57%
Experimental: as §3
a 25 cm2 flask in 5 ml of culture medium. […]
The concentration required for […]
concentration), and then cells were washed twice with ice-cold phosphate buffered saline (PBS).
Subsequently, the treated cells were collected by centrifugation, fixed in ice-cold 70% (v/v) ethanol, washed with PBS, re-suspended with 100 μg/mL RNase, stained with 40 μg/mL PI, and analyzed by flow cytometry using FACS Calibur (Becton Dickinson, BD, Franklin Lakes, NJ, USA). The cell cycle distributions were calculated using CellQuest software 5.1 (Becton

[8] = Homo sapiens, MCF7, SRB, 48 h, mean of 3 separate experiments
[9] = Homo sapiens, A549, SRB, 48 h, mean of 3 separate experiments
[10] = Homo sapiens, PANC-1, SRB, 48 h, mean of 3 separate experiments
[11] = MRC5, normal lung fibroblasts, mean of three separate experiments, read-out: IC50 MRC-5
[12] = SRB, 48 h, mean of 3 separate experiments

| Compound | IC50 [1, 8] | IC50 [2] | IC50 [3, 9] | IC50 [4, 10] | IC50 [5, 11] | melting point | other results |
| --- | --- | --- | --- | --- | --- | --- | --- |
| O=C(NNC(=S)Nc1cccc(Cl)c1)c1oc2ccccc2c1CN1CCN(c2ccccc2)CC1 [Compound 9f] | 127 ± 7.56 µM | 0.119 ± 0.0061 µM | 127 ± 7.61 µM | 126 ± 7.06 µM | 391 ± 25 µM |  |  |
| COc1ccc(NC(=S)NNC(=O)c2oc3ccccc3c2CN2CCN(c3ccccc3)CC2)cc1 [Compound 9c] | 86.6 ± 5.28 µM | 0.214 ± 0.011 µM | 72.2 ± 5.36 µM | 103 ± 6.21 µM | 261 ± 20 µM | 182 to 184 °C |  |
| COc1cccc(NC(=S)NNC(=O)c2oc3ccccc3c2CN2CCN(c3ccccc3)CC2)c1 [Compound 9b] | 98.5 ± 4.47 µM | 0.0849 ± 0.0043 µM | 80.4 ± 4.87 µM | 61.9 ± 3.48 µM | 289 ± 19 µM |  |  |
| O=C(NNC(=S)Nc1cccc(F)c1)c1oc2ccccc2c1CN1CCN(c2ccccc2)CC1 [Compound 9d] | 53.9 ± 3.57 µM | 0.0777 ± 0.041 µM | 40.4 ± 2.74 µM | 27.2 ± 1.87 µM | 166 ± 14 µM |  |  |
| O=C(NNC(=S)Nc1ccc(F)cc1)c1oc2ccccc2c1CN1CCN(c2ccccc2)CC1 [Compound 9e] | 5.89 ± 0.43 µM | 0.065 ± 0.0033 µM | 5.24 ± 0.4 µM | 3.29 ± 0.2 µM | 52 ± 3 µM | 218 to 220 °C |  |
| COc1ccc(NC(=O)NNC(=O)c2oc3ccccc3c2CN2CCN(c3ccccc3)CC2)cc1 [Compound 11c] |  |  |  |  |  |  | IC50 ([1]; Homo sapiens, MCF7, 48 h): 76.9 ± 5.21 µM; IC50 ([3]; Homo sapiens, A549, 48 h): 57 ± 2.33 µM; IC50 ([4]; Homo sapiens, PANC-1, 48 h): 61.5 ± 4.52 µM; IC50 ([5]; MRC5, read-out: IC50 MRC-5): 246 ± 13 µM |
| COc1cccc(C=NNC(=O)c2oc3ccccc3c2CN2CCN(c3ccccc3)CC2)c1 [Compound 13b] | 2.98 ± 0.18 µM | 0.0656 ± 0.00331 µM | 1.71 ± 0.1 µM | 1.04 ± 0.08 µM | 18.1 ± 1.3 µM | 176 to 178 °C |  |
| O=C(NN=C1CCCc2ccccc21)c1oc2ccccc2c1CN1CCN(c2ccccc2)CC1 [Compound 17] | 82.8 ± 5.43 µM | 0.0656 ± 0.0033 µM | 58.9 ± 1.88 µM | 80.4 ± 4.83 µM | 284 ± 15 µM |  |  |
| COc1cccc(NC(=O)NNC(=O)c2oc3ccccc3c2CN2CCN(c3ccccc3)CC2)c1 [Compound 11b] |  |  |  |  |  |  | IC50 ([1]; Homo sapiens, MCF7, 48 h): 15.2 ± 1.34 µM; IC50 ([3]; Homo sapiens, A549, 48 h): 13.8 ± 1.04 µM; IC50 ([4]; Homo sapiens, PANC-1, 48 h): 10.2 ± 0.86 µM; IC50 ([5]; MRC5, read-out: IC50 MRC-5): 121 ± 10 µM |
| O=C(NNC(=S)Nc1ccc(Cl)cc1)c1oc2ccccc2c1CN1CCN(c2ccccc2)CC1 [Compound 9g] | 121 ± 8.39 µM | 0.0698 ± 0.0036 µM | 111 ± 6.38 µM | 122 ± 6.34 µM | 342 ± 30 µM | 197 to 199 °C |  |
| N.N.[Cl][Pt][Cl] [Cisplatin, reference compound] |  |  |  |  |  |  | IC50 [1, 12]: 5.45 ± 0.4 µM; IC50 [3, 12]: 6.72 ± 0.37 µM; IC50 [4, 12]: 6.98 ± 0.35 µM |
| COc1ccc(NC(=O)NNC(=O)c2oc3ccccc3c2CN2CCN(c3ccccc3)CC2)cn1 [Compound 11e] |  |  |  |  |  |  | IC50 ([1]; Homo sapiens, MCF7, 48 h): 48.7 ± 3.54 µM; IC50 ([4]; Homo sapiens, PANC-1, 48 h): 54.6 ± 4.22 µM; IC50 ([5]; MRC5, read-out: IC50 MRC-5): 244 ± 18 µM |
| O=C(NNC(=S)Nc1ccccc1)c1oc2ccccc2c1CN1CCN(c2ccccc2)CC1 [Compound 9a] | 118 ± 6.02 µM | 0.322 ± 0.016 µM | 85.5 ± 6.21 µM | 86.9 ± 4.17 µM | 406 ± 21 µM | 198 to 200 °C |  |
| CC(=NNC(=O)c1oc2ccccc2c1CN1CCN(c2ccccc2)CC1)c1ccccc1 [Compound 15a] | 123 ± 6.82 µM | 0.333 ± 0.017 µM | 98.4 ± 5.61 µM | 120 ± 5.77 µM | 452 ± 28 µM | 191 to 193 °C |  |
| COc1ccc(C(C)=NNC(=O)c2oc3ccccc3c2CN2CCN(c3ccccc3)CC2)cc1 [Compound 15b] | 44.4 ± 2.96 µM | 0.127 ± 0.0065 µM | 28.5 ± 1.92 µM | 25.4 ± 1.7 µM | 160 ± 10 µM |  |  |
| O=C(NNC(=O)c1oc2ccccc2c1CN1CCN(c2ccccc2)CC1)Nc1ccccc1 [Compound 11a] |  |  |  |  |  |  | IC50 ([1]; Homo sapiens, MCF7, 48 h): 55.9 ± 3.18 µM; IC50 ([3]; Homo sapiens, A549, 48 h): 49.3 ± 3.27 µM; IC50 ([4]; Homo sapiens, PANC-1, 48 h): 56.8 ± 2.94 µM; IC50 ([5]; MRC5, read-out: IC50 MRC-5): 178 ± 13 µM |
| O=C(NNC(=O)c1oc2ccccc2c1CN1CCN(c2ccccc2)CC1)Nc1ccc(Cl)c(C(F)(F)F)c1 [Compound 11d] |  |  |  |  |  |  | IC50 ([1]; Homo sapiens, MCF7, 48 h): 5.57 ± 0.47 µM; IC50 ([3]; Homo sapiens, A549, 48 h): 2.99 ± 0.21 µM; IC50 ([4]; Homo sapiens, PANC-1, 48 h): 2.22 ± 0.13 µM; total apoptotic cells percentage [6]: 29.93%; early apoptotic phase percentage [6]: 2.64%; late apoptotic phase percentage [6]: 15.87%; IC50 ([5]; MRC5, read-out: IC50 MRC-5): 74 ± 5 µM; proportion of cells in sub-G1 phase [7]: 23.04%; proportion of cells in G2/M phase [7]: 27.52%; cells population in S phase [7]: 22.61%; cells population in G0/G1 phase [7]: 26.83% |
| COc1ccc(C=NNC(=O)c2oc3ccccc3c2CN2CCN(c3ccccc3)CC2)cc1 [Compound 13c] | 13.6 ± 0.94 µM | 0.0526 ± 0.0027 µM | 14.4 ± 1.02 µM | 4.47 ± 0.29 µM | 121 ± 9 µM | 181 to 182 °C |  |
| CC(=O)c1ccc(NC(=S)NNC(=O)c2oc3ccccc3c2CN2CCN(c3ccccc3)CC2)cc1 [Compound 9i] | 27.3 ± 2.05 µM | 0.0894 ± 0.00462 µM | 29.2 ± 2.06 µM | 19.2 ± 1.27 µM | 142 ± 11 µM |  |  |
| O=C(NNC(=S)Nc1cccc(C(F)(F)F)c1)c1oc2ccccc2c1CN1CCN(c2ccccc2)CC1 [Compound 9h] | 2.92 ± 0.17 µM | 0.0409 ± 0.0021 µM | 1.71 ± 0.12 µM | 0.94 ± 0.1 µM | 27.7 ± 1.8 µM |  | total apoptotic cells percentage [6]: 43.51%; early apoptotic phase percentage [6]: 5.41%; late apoptotic phase percentage [6]: 20.99%; proportion of cells in sub-G1 phase [7]: 30.32%; proportion of cells in G2/M phase [7]: 32.46%; cells population in S phase [7]: 16.66%; cells population in G0/G1 phase [7]: 20.56% |
| O=C(NN=Cc1ccccc1)c1oc2ccccc2c1CN1CCN(c2ccccc2)CC1 [Compound 13a] | 118 ± 8.39 µM | 0.152 ± 0.0077 µM | 109 ± 7.59 µM | 169 ± 9.41 µM | > 500 µM |  |  |

Reference: article PMC9126595, “Identification of 3-(piperazinylmethyl)benzofuran derivatives as novel type II CDK2 inhibitors: design, synthesis, biological evaluation, and in silico insights” (Journal of Enzyme Inhibition and Medicinal Chemistry, 2022)
